Legend:
[1] = Liquid; for mass density: 298.15 K, 101.33 kPa, Vibrating tube method; for vapor or sublimation pressure: Ebulliometric method (Recirculating still)
[2] = Boiling temperature at pressure P; conditions: Liquid, Ebulliometric method (Recirculating still)

CCOC(=O)C(C)O (racemic) [DL-ethyl lactate]
Conditions	mass density [kg/m3]
[1]	1028.08

Conditions	Boiling temperature at pressure P [°C]	vapor or sublimation pressure [kPa]
[1], 396.91 K	–	40
[1], 405.49 K	–	53.33
[1], 412.44 K	–	66.66
[1], 418.34 K	–	79.99
[1], 423.47 K	–	93.32
[1], 426.1 K	–	101.3
[2], 40 kPa	123.76	–
[2], 53.33 kPa	132.34	–
[2], 66.66 kPa	139.29	–
[2], 79.99 kPa	145.19	–
[2], 93.32 kPa	150.32	–
[2], 101.3 kPa	153.0	–

CO [methanol]
Conditions	mass density [kg/m3]
[1]	786.56

Conditions	Boiling temperature at pressure P [°C]	vapor or sublimation pressure [kPa]
[1], 315.49 K	–	40
[1], 321.98 K	–	53.33
[1], 327.23 K	–	66.66
[1], 331.66 K	–	79.99
[1], 335.51 K	–	93.32
[1], 337.6 K	–	101.3
[2], 40 kPa	42.34	–
[2], 53.33 kPa	48.83	–
[2], 66.66 kPa	54.08	–
[2], 79.99 kPa	58.51	–
[2], 93.32 kPa	62.36	–
[2], 101.3 kPa	64.5	–

COC(C)=O [methyl ethanoate]
Conditions	mass density [kg/m3]
[1]	927.1

Conditions	Boiling temperature at pressure P [°C]	vapor or sublimation pressure [kPa]
[1], 305.65 K	–	40
[1], 312.68 K	–	53.33
[1], 318.45 K	–	66.66
[1], 323.36 K	–	79.99
[1], 327.68 K	–	93.32
[1], 330.04 K	–	101.3
[2], 40 kPa	32.50	–
[2], 53.33 kPa	39.53	–
[2], 66.66 kPa	45.30	–
[2], 79.99 kPa	50.21	–
[2], 93.32 kPa	54.53	–
[2], 101.3 kPa	56.89	–
